The source of these data is ChEMBL document CHEMBL1126326, “Novel antagonists of the 5-HT3 receptor. Synthesis and structure-activity relationships of (2-alkoxybenzoyl)ureas” (J Med Chem, 1992).

The target of the assay is T1, Serotonin 3 (5-HT3) receptor (Rattus norvegicus, UniProt P35563+Q9JJ16).
T1 sequence (P35563 whole entry): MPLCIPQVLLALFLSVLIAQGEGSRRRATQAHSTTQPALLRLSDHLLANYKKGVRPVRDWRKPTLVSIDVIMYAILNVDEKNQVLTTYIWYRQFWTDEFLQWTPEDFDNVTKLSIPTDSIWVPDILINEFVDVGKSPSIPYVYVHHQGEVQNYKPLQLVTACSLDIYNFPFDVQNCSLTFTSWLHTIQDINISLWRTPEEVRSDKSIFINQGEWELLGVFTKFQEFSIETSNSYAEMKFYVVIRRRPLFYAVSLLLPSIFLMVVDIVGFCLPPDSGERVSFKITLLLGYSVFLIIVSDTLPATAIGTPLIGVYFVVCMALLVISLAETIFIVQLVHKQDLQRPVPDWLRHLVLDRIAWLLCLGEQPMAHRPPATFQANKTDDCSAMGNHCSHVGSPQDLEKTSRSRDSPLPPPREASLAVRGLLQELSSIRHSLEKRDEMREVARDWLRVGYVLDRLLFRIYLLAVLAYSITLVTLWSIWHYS
T1 sequence (Q9JJ16 whole entry): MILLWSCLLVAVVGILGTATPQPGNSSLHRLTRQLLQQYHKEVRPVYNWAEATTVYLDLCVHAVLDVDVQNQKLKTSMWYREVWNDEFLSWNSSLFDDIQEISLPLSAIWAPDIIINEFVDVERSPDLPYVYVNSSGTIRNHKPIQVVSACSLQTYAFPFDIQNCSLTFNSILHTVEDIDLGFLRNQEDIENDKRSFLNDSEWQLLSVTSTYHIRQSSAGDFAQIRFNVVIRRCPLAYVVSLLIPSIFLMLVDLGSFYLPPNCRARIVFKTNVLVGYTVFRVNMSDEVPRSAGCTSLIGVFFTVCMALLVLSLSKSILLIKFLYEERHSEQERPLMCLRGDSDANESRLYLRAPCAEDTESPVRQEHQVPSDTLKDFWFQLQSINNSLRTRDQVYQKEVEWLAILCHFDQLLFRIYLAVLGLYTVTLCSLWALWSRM
Kind of assay: In vitro antagonism of the 5-HT-3 receptor determined by inhibition of 5-HT-induced depolarization of the isolated rat vagus nerve. The assay is classed as functional. The conditions noted are these: read-out: pA2 (converted).
For `CN1C2CCC1CC(NC(=O)NC(=O)c1ccccc1OCC1CC1)C2` (centres undefined), the Kb was 0.00126 µM.
Consider `CN1CCC(OC(=O)NC(=O)c2cc(Cl)cc(Cl)c2)CC1`, for which the Kb was 0.126 µM.
For the compound `O=C(NC(=O)c1ccccc1F)NC1CN2CCC1CC2` (centres undefined), the Kb is > 0.316 µM.
In the case of `CN1C2CCC1CC(NC(=O)NC(=O)c1ccccc1O)C2` (centres undefined), the Kb is 0.0126 µM.
For `COc1ccc(Cl)cc1C(=O)NC(=O)NC1CC2CCC(C1)N2C` (centres undefined), the Kb was 0.0468 µM.
Turning to `CCOc1ccccc1C(=O)NC(=O)NC1CC2CCC(C1)N2C` (centres undefined), the Kb is 0.00204 µM.
`COc1ccccc1C(=O)NC(=O)NC1CN2CCC1CC2` (centres undefined): the Kb is 0.01 µM.
With `COc1cc(N)c(Cl)cc1C(=O)NC1CN2CCC1CC2` (centres undefined) [ZACOPRIDE], the Kb is 0.000794 µM.
Then `COc1ccccc1C(=O)NC(=O)OC1CC2CCC(C1)N2C` (centres undefined), with 0.017 µM; and `COc1ccccc1C(=O)NC(=O)NC1CC2CCCC(C1)N2C` (centres undefined), with 0.0398 µM; and `COc1cc(N)ccc1C(=O)NC(=O)NC1CC2CCC(C1)N2C` (centres undefined), with 0.158 µM.
The result for `COc1cccc(OC)c1C(=O)NC(=O)NC1CN2CCC1CC2` (centres undefined) reads > 0.316 µM; that for `COc1ccccc1C(=O)NC(=O)NC1CC2CCC(C1)N2C` (centres undefined) [listing 1 of 2 here], > 0.0316 µM.
As for `CN1[C@@H]2CC[C@H]1C[C@@H](OC(=O)c1cc(Cl)cc(Cl)c1)C2` [BEMESETRON], the Kb is 0.0158 µM.
As to `COc1ccccc1C(=O)NC(=O)N[C@@H]1CN2CCC1CC2`, the Kb is 0.0562 µM.
Take `CCCCOc1ccccc1C(=O)NC(=O)NC1CC2CCC(C1)N2C` (centres undefined): the Kb was 0.002 µM.
As for `COc1ccccc1C(=O)NC(=O)NC1CC2CCC(C1)N2C` (centres undefined) [listing 2 of 2 here], the Kb is 0.00251 µM.
Then `COc1ccccc1C(=O)NC(=O)N[C@H]1CN2CCC1CC2`, with 0.00708 µM.
As for `CC(C)COc1ccccc1C(=O)NC(=O)NC1CC2CCC(C1)N2C` (centres undefined), the Kb is 0.00316 µM.
`O=C(NC(=O)c1cc(Cl)cc(Cl)c1)NC1CN2CCC1CC2` (centres undefined): the Kb is 0.2 µM.
As to `COc1cc([N+](=O)[O-])ccc1C(=O)NC(=O)NC1CC2CCC(C1)N2C` (centres undefined), the Kb was > 0.1 µM.
For `CCCOc1ccccc1C(=O)NC(=O)NC1CC2CCC(C1)N2C` (centres undefined), the Kb is 0.00126 µM.
Take `CC(C)CCOc1ccccc1C(=O)NC(=O)NC1CC2CCC(C1)N2C` (centres undefined): the Kb is 0.00631 µM.
Take `CCCCCOc1ccccc1C(=O)NC(=O)NC1CC2CCC(C1)N2C` (centres undefined): the Kb was 0.0316 µM.
As for `COc1cc(N)c(Cl)cc1C(=O)NC(=O)NC1CC2CCC(C1)N2C` (centres undefined), the Kb was 0.0794 µM.
Take `COc1ccc(C(=O)NC(=O)NC2CN3CCC2CC3)cc1` (centres undefined): the Kb was > 0.316 µM.
With `CC(C)Oc1ccccc1C(=O)NC(=O)NC1CC2CCC(C1)N2C` (centres undefined), the Kb is 0.000631 µM.
Turning to `COc1ccccc1C(=O)NC(=O)OC1CN2CCC1CC2` (centres undefined), the Kb is 0.0363 µM.
On to `Cc1ccccc1C(=O)NC(=O)NC1CN2CCC1CC2` (centres undefined), for which the Kb is 0.251 µM.
